Key:
[1] = test system: explants of neonatal rabbit kidneys; assay type: cell-based
Source text: An interactive tissue culture system was established for testing of toxicity. The culture system should provide information on whether the action of the substance perfluorophenathrene which changes the vessels can be established in vitro. Explants of neonatal rabbit kidneys were chosen as the test tissue. Antibodies for detection of vessels in the rabbit tissues are available in laboratory. In addition, the vascular system in this tissue has an extraordinarily high degree of spacial order. The preservation of the structure of the vascular system after application of the test substance was the parameter for assessment of the toxic effect in this test.
Tissue preparation: One to three day old rabbits were sacrificed by cervical dislocation. Organ explants were prepared immediately after removal of the kidneys.
The kidneys of neonatal rabbits are not yet completely developed. In the outermost region of the organ directly under the organ capsule, all nephron developments stages are found in addition to the embryonal tissue. Microsurgical organ explants were prepared from this region. To do this the kidneys were cut in half lengthwise. With fine tweezers the thin organ capsule was removed. With the organ capsule, the renal tissue still in development was detached. Proteases were not used in this preparation method, i.e. the organ-typical extracellular matrix and the intercellular connections remained intact. The organ explants were then stretched onto the retaining ring system.
Culture of the kidney explants: By using a retaining ring system it was possible to use tissue explants which had been […] for the tests. The tissue fragment was prepared in the corresponding size and fixed in the retaining ring. Proteolytic disintegration of the tissue, as can be necessary for culture in the conventional culture dish applications, was not carried out. The tissue fragment stretched onto the retaining ring was brought into contact with the tissue top or bottom with the test substance. The tissue top was defined as the side covered by the organ capsule. The tissue bottom was the tissue side exposed by the preparation. The tissue explants prepared in this way were cultivated with continuous throughflow of the medium. Use of perfusion culture technique in this case enabled complete abandonment of additives of fetal calf serum, adult serum or tissue extracts. The medium consists of a commercially available basic medium (Iscove's Modified Dulbecco's Medium, IMDM) to which the hormones aldosterone (10^-7 M) and 1.25 dihydroxyvitamin D3 (10^-9 M) have been added. In the presence of these hormones the structure of the renal tissue is completely preserved. Necroses were not observed even after culture times of more than 10 days.
For the perfusion culture, stretched explant 5 (organ samples) were inserted into the gradient chamber so that one upper and one lower compartment 6 or 7 are formed which are separated from one another by tissue 5. Upper compartment 6 was filled with the given test substance and no flow takes place through it in the experiment since the test substance was of viscous consistency. Throughflow of the test substance however would be possible in the application of liquid or gaseous substances.
Lower compartment 7 was filled with nutrient solution which was continuously pumped through the chamber compartment. Storage bottle 13 of the medium was connected via a hose connection 11 to the inlet 8 of lower chamber 7. Chamber outflow 9 was connected to the waste bottle. Storage bottle 13 was kept at 4° C. during the entire culture time. Supply hose 11 was inserted into 12 which ensured constant flushing of chamber with medium at 1 ml/h. […] Fundamentally other flow rates are possible. […]

rabbit eye [2] = assay: test of vitreous body replacements in the rabbit eye (animal test)
rabbit eye [3] = settings: in vivo

Source text for tumor cells: In this example, two of these replacements (the substances perfluorophenathrene and perfluorodecaline) were studied. The substances have been tested in a cell culture system.
Cell culture systems are outstandingly suited for detection of acute toxic effects. They allow prompt testing of the direct toxic effect. If the toxicity of a substance is however based on cellular interactions, other systems must be used for analysis.

| Structure (SMILES) | Expression of EC 1 antigen [1] | Tissue structure [1] | Vascular structure [1] | preservation of the vascular network / vascular system in renal explants [1] | toxic effects in cell culture (tumor cells) | tolerance in animal test (rabbit eye [2]) | expression of the EC 1 antigen / detection of endothelial cells [1] | damage to the retina or eye (rabbit eye [3]) |
| --- | --- | --- | --- | --- | --- | --- | --- | --- |
| FC1(F)C(F)(F)C(F)(F)C2(F)C(F)(F)C(F)(F)C(F)(F)C(F)(F)C2(F)C1(F)F (stereo not shown) [Perfluorodecaline, perfluorodecaline] | + | + | + | excellent preservation of the vascular system | no indications of toxic effects | good tolerance |  |  |
| FC1(F)C(F)(F)C(F)(F)C2(F)C(F)(C1(F)F)C(F)(F)C(F)(F)C1(F)C(F)(F)C(F)(F)C(F)(F)C(F)(F)C12F (stereo not shown) [Perfluorophenathrene, perfluorophenathrene] | + |  | - |  |  |  | expression of the EC 1 antigen was not influenced | major damage to the eye |

Reference: patent US5928860A, “Process for determining the tolerance, or toxicity of gaseous, liquid and/or viscous substances for the human or animal organism” (priority 1997, dated 1999)
